Patent US7132418B2, “Peptidyl heterocyclic ketones useful as tryptase inhibitors” (Ortho-McNeil Pharmaceutical, Inc., priority 1999, dated 2006)

Experiments:
[1] = compared with placebo, 16 mild asthmatics, nebulized dry powder formulation; cited from earlier work
human Lung Tryptase = molecular target: T1, human Lung Tryptase; test: Tryptase IC50 method, chromogenic substrate hydrolysis; format: biochemical; settings: 1.0 nM human lung tryptase, 500 μM N-p-Tosyl-GLY-PRO-LYS-pNA, 37° C.
T1 construct: 1.0 nM human Lung Tryptase
Experimental: (§1) The enzyme reaction is started by the addition of enzyme ([E]: 1.0 nM human Lung Tryptase; Cortex Biochem CP3033). Data is collected over a period of 30 min. and the initial rate of substrate hydrolysis (Vo (mOD/min)) is calculated. Inhibition is calculated by comparing to wells containing no inhibitor (vehicle) and IC50s are determined using a four parameter fit logistics model. • Trypsin IC50 Method: Inhibition of trypsin-catalyzed hydrolysis rates were measured using the same method as the tryptase procedure. Bovine type 1 trypsin (Sigma) and Spectrozyme® TRY (Cbo-Gly-D-Ala-Arg-pNA.AcOH, American Diagnostics) replaced their tryptase equivalents at concentrations of 3.2 U/ml trypsin and 1.0 mM Spectrozyme® TRY.

Bovine type 1 trypsin = molecular target: T2, Bovine type 1 trypsin (Bos taurus, UniProt P00760); test: Trypsin IC50 method, chromogenic substrate hydrolysis; format: biochemical; settings: 3.2 U/ml bovine type 1 trypsin, 1.0 mM Spectrozyme TRY
T2 construct: purchased Sigma
T2 sequence (P00760 24-246): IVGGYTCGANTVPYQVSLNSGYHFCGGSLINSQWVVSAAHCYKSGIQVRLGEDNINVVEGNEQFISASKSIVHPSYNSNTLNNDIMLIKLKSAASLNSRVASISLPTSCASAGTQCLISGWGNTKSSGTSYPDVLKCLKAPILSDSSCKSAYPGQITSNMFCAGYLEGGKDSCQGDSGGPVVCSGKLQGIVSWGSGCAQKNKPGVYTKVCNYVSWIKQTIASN
Experimental: as §1

trypsin = settings: pancreatic agents, comparison values; cited from earlier work

Row | SMILES | IC50 (human Lung Tryptase) [nM] | IC50 (Bovine type 1 trypsin) [nM] | improvement for the late airway response [1] [%] | mean maximum decrease of forced expiratory volume in one second for late airway hyperresponsiveness [1] [%] | IC50 (trypsin) [nM]
1 | NC(=O)[C@@H]1CCCN1C(=O)[C@H](CCCN=C(N)N)NC(=O)c1ccc2ccccc2c1O [APC-366] | – | – | 33 | 21 | –
2 | N=C(N)NCCCC(NC(=O)[C@@H]1CCCN1C(=O)c1ccccc1)C(=O)c1nc2ccccc2s1 (stereo partly drawn) [Compound 34] | 340 | 46 | – | – | –
3 | CC(=O)N1C[C@H]2C[C@H]2C1C(=O)NC(CCCNC(=N)N)C(=O)c1nc2ccccc2s1 (stereo partly drawn) [Compound 8, (2S)-trans-3-Acetyl-N-[4-[(aminoiminomethyl)amino]-1-(2-benzothiazolylcarbonyl)butyl]-3-azabicyclo(3.1.0)hexane-2-carboxamide] | 110 ± 40 | 190 | – | – | –
4 | N=C(N)NCCCC(NC(=O)CCC(N)=O)C(=O)c1nc2ccccc2s1 (stereo not drawn) [Compound 23, N-[4-[(Aminoiminomethyl)amino]-1-(2-benzothiazolylcarbonyl)butyl]butanediamide] | 260 ± 10 | 93 ± 68 | – | – | –
5 | CN[C@H](Cc1ccccc1)C(=O)N1CCC[C@H]1C(=O)N[C@@H](Cc1cccc(C(=N)N)c1)C(=O)c1nc2ccccc2s1 [Compound 31, (S)—N-methyl-D-phenylalanyl-N-[1-[[3-(aminoiminomethyl)phenyl]methyl]-2-(2-benzothiazolyl)-2-oxoethyl]-L-prolinamide] | 290 ± 30 | 240 | – | – | –
6 | N=C(N)NCCC[C@H](NC(=O)[C@@H]1CCCN1C(=O)[C@@H](CC1CCCCC1)NCC(=O)O)C(=O)c1nc2ccccc2s1 [Compound 27, N-(Carboxymethyl)-3-cyclohexyl-D-alanyl-N-[(1S)-4-[(aminoiminomethyl)amino]-1-(2-benzothiazolylcarbonyl)butyl]-L-prolinamide] | 34 ± 3 | 36 ± 1 | – | – | –
7 | Cc1ccc(S(=O)(=O)N2CCC[C@H]2C(=O)NC(CCCNC(=N)N)C(=O)c2nc3ccccc3s2)cc1 (stereo partly drawn) [Compound 7, (2S)-N-[4-[(Aminoiminomethyl)amino]-1-(2-benzothiazolylcarbonyl)butyl]-1-[(4-methylphenyl)sulfonyl]-2-pyrrolidinecarboxamide] | 1400 ± 800 | 230 ± 110 | – | – | –
8 | CC(=O)N[C@H]1CCCN(CC(=O)NC(CCCNC(=N)N)C(=O)c2nc3ccccc3s2)C1=O (stereo partly drawn) [Compound 19, (S)-3-Acetamido-N-[4-[(aminoiminomethyl)amino]-1-(2-benzothiazolylcarbonyl)butyl]-2oxo-1-piperidineacetamide] | 12000 ± 5000 | 320 | – | – | –
9 | CS(=O)(=O)N1CCC[C@H]1C(=O)NC(CCCNC(=N)N)C(=O)c1nc2ccccc2s1 (stereo partly drawn) [Compound 6, (2S)-N-[4-[(aminoiminomethyl)amino]-1-(2-benzothiazolylcarbonyl)butyl]-1-methanesulfonyl-2-pyrrolidinecarboxamide] | 140 ± 80 | 110 | – | – | –
10 | N=C(N)c1ccc2cc(OC(=O)c3ccc(N=C(N)N)cc3)ccc2c1 [nafamostat] | – | – | – | – | 13
11 | CN[C@H](Cc1ccccc1)C(=O)N1CCC[C@H]1C(=O)N[C@@H](CC1CCCN(C(=N)N)C1)C(=O)c1nc2ccccc2s1 (stereo partly drawn) [Compound 30, N-Methyl-D-phenylalanyl-N-[(2S)-[1-(aminoiminomethyl)-3-piperidinyl]-1-(2-benzothiazolylcarbonyl)ethyl]-L-prolinamide] | 36 ± 4 | 110 ± 70 | – | – | –
12 | N=C(N)NCCCC(NC(=O)C1CCCCC1C(N)=O)C(=O)c1nc2ccccc2s1 (stereo not drawn) [Compound 16, N-[4-[(Aminoiminomethyl)amino]-1-(2-benzothiazolylcarbonyl)butyl]-1,2-cyclohexanedicarboxamide] | 180 ± 70 | 160 | – | – | –
13 | CN(C)C(=O)COC(=O)Cc1ccc(OC(=O)c2ccc(NC(=N)N)cc2)cc1 [camostat mesilate] | – | – | – | – | 10

Continued by falling IC50 (human Lung Tryptase), values first:

Row | IC50 (human Lung Tryptase) [nM] | IC50 (Bovine type 1 trypsin) [nM] | SMILES | improvement for the late airway response [1] [%] | mean maximum decrease of forced expiratory volume in one second for late airway hyperresponsiveness [1] [%] | IC50 (trypsin) [nM]
14 | 9400 ± 5700 | 2400 | CC(=O)NC1CCC(C(=O)NC(CCCNC(=N)N)C(=O)c2nc3ccccc3s2)CC1 (stereo not drawn) [Compound 17, 4-Acetamido-N-[4-[(aminoiminomethyl)amino]-1-(2-benzothiazolylcarbonyl)butyl]-cyclohexanecarboxamide] | – | – | –
15 | 2400 ± 900 | 39 | COC(=O)N1CCC[C@H]1C(=O)NC(CCCNC(=N)N)C(=O)c1nc2ccccc2s1 (stereo partly drawn) [Compound 11, (2S)-N-[4-[(Aminoiminomethyl)amino]-1-(2-benzothiazolylcarbonyl)butyl]-1,2-pyrrolidinedicarboxamide, 1-methyl ester] | – | – | –
16 | 1700 ± 700 | 360 ± 30 | CC(=O)N[C@H]1CCC[C@H]1C(=O)NC(CCCNC(=N)N)C(=O)c1nc2ccccc2s1 (stereo partly drawn) [Compound 3, cis-2-Acetylamino-N-[(1S)-4-[(aminoiminomethyl)amino]-1-(2-benzothiazolylcarbonyl)butyl]-1-cyclopentanecarboxamide] | – | – | –
17 | 440 | 17 | CC(=O)N[C@@H](CC1CCCCC1)C(=O)NC(CCCNC(=N)N)C(=O)c1nc2ccccc2s1 (stereo partly drawn) [Compound 32] | – | – | –
18 | 180 ± 10 | 19 | CC(=O)N[C@H](C(=O)NC(CCCNC(=N)N)C(=O)c1nc2ccccc2s1)C(C)C (stereo partly drawn) [Compound 33] | – | – | –
19 | 110 ± 10 | 48 ± 1 | CCCC(CCC)C(=O)N[C@@H](CC(=O)OC)C(=O)N1CCC[C@H]1C(=O)N[C@@H](CCCNC(=N)N)C(=O)c1nc2ccccc2s1 [Compound 26, N-(1-Oxo-2-propylpentyl)-L-α-aspartyl-N-[4-[(aminoiminomethyl)amino]-1-(2-benzothiazolylcarbonyl)butyl]-L-prolinamide, methyl ester] | – | – | –
20 | 100 ± 40 | 42 ± 1 | N=C(N)NCCC[C@H](NC(=O)CN1CCCC[C@H](NS(=O)(=O)Cc2ccccc2)C1=O)C(=O)c1nc2ccccc2s1 [Compound 28, (3S)N-[(1S)-4-[(Aminoiminomethyl)amino]-1-(2-benzothiazolylcarbonyl)butyl]hexahydro-2-oxo-3-[[(phenylmethyl)sulfonyl]amino]-1H-azepine-1-acetamide] | – | – | –
21 | 100 ± 10 | 210 | CS(=O)(=O)N1C[C@H](O)C[C@H]1C(=O)NC(CCCNC(=N)N)C(=O)c1nc2ccccc2s1 (stereo partly drawn) [Compound 5, (2S,4R)-N-[4-[(aminoiminomethyl)amino]-1-(2-benzothiazolylcarbonyl)butyl]-4-hydroxy-1-methanesulfonyl-2-pyrrolidinecarboxamide] | – | – | –
22 | 14 ± 5 | 58 ± 12 | N=C(N)NCCC[C@H](NC(=O)[C@@H]1CCCN1C(=O)[C@H](CO)NS(=O)(=O)c1cccc2ccccc12)C(=O)c1nc2ccccc2s1 [Compound 29] | – | – | –
